Like-named read-outs stand apart in the source and are kept apart here. Marks after values point to notes of the source that are not given here.
Columns and labels:
Format in all cases: in vivo
[1] = system: Plasmopara viticola; assay: Test E: preventive control of grape downy mildew on grape seedlings
Source text: (§1) General protocol for preparing test suspensions: Test compounds are first dissolved in acetone in an amount equal to 3% of the final volume and then suspended at the desired concentration (in ppm) in acetone and purified water (50/50 mix) containing 250 ppm of the surfactant Trem® 014 (polyhydric alcohol esters). The resulting test suspensions are then used in the following tests. Spraying a 200 ppm test suspension to the point of run-off on the test plants is the equivalent of a rate of 500 g/ha.
The test suspension was sprayed to the point of run-off on grape seedlings. The following day the seedlings were inoculated with a spore suspension of Plasmopara viticola (the causal agent of grape downy mildew) and incubated in a saturated atmosphere at 20° C. for 24 h, moved to a growth chamber at 20° C. for 6 days, and then incubated in a saturated atmosphere at 20° C. for 24 h, after which disease ratings were made.

[2] = system: Phytophthora infestans
[3] = system: Plasmopara viticola; assay: Test G: curative control of grape downy mildew on grape seedlings
Source text: as §1
Grape seedlings are inoculated with a spore suspension of Plasmopara viticola (the casual agent of grape downy mildew) and incubated in a saturated atmosphere at 20° C. for 24 h. The next day, test suspension is sprayed to the point of run-off and the treated plants are moved to a growth chamber at 20° C. for 6 days, and then incubated in a saturated atmosphere at 20° C. for 24 h, after which disease ratings are made.

[4] = system: Erysiphe graminis f. sp. tritici; assay: Test A: preventive control of wheat powdery mildew on wheat seedlings; conditions: wheat seedlings sprayed to run-off, inoculated next day, rated after 7 days; concentration not given
Source text: as §1
The test suspension was sprayed to the point of run-off on wheat seedlings. The following day the seedlings were inoculated with a spore dust of Erysiphe graminis f. sp. tritici, (the causal agent of wheat powdery mildew) and incubated in a growth chamber at 20° C. for 7 days, after which disease ratings were made.

[5] = system: Puccinia recondita; assay: Test B: preventive control of wheat leaf rust on wheat seedlings; conditions: wheat seedlings sprayed to run-off, inoculated next day; concentration not given
Source text: as §1
The test suspension was sprayed to the point of run-off on wheat seedlings. The following day the seedlings were inoculated with a spore suspension of Puccinia recondita (the causal agent of wheat leaf rust) and incubated in a saturated atmosphere at 20° C. for 24 h, and then moved to a growth chamber at 20° C. for 6 days, after which disease ratings were made.

[6] = system: Pyricularia oryzae; conditions: rice seedlings sprayed to run-off, inoculated next day; concentration not given
[7] = system: Phytophthora infestans; conditions: tomato seedlings sprayed to run-off, inoculated next day; concentration not given
[8] = grape seedlings sprayed to run-off, inoculated next day, concentration not given
[9] = grape seedlings inoculated, sprayed next day (curative), concentration not given

CC(NC(=O)c1c(Cl)ccnc1Cl)c1ncc(C(F)(F)F)cc1Cl (single isomer, unassigned; (-)) [Compound 23, (−)-2,4-Dichloro-N-[-1-[3-chloro-5-(trifluoromethyl)-2-pyridinyl]ethyl]-3-pyridinecarboxamide]
Test E disease control rating (100 = 100% disease control, 0 = no control) ([1]; grape seedlings, preventive, 100 ppm (footnote *)): 69* % | Test F disease control rating (100 = 100% disease control, 0 = no control) ([2]; curative, 100 ppm on potato seedlings): 65# % | Test G disease control rating (100 = 100% disease control, 0 = no control) ([3]; grape seedlings, curative, 20 ppm): 0** %

Nc1ncccc1C(=O)NCc1ncc(C(F)(F)F)cc1Cl [Compound 6]
Test A disease control rating (100 = 100% disease control, 0 = no control) [4]: 0% | Test B disease control rating (100 = 100% disease control, 0 = no control) [5]: 28% | Test C disease control rating (100 = 100% disease control, 0 = no control) [6]: 0% | Test D disease control rating (100 = 100% disease control, 0 = no control) [7]: 7% | Test E disease control rating (100 = 100% disease control, 0 = no control) [1, 8]: 0% | Test G disease control rating (100 = 100% disease control, 0 = no control) [3, 9]: 8%

O=C(NCc1ncc(C(F)(F)F)cc1Cl)c1cncc(Br)c1 [Compound 7]
Test A disease control rating (100 = 100% disease control, 0 = no control) [4]: 0% | Test B disease control rating (100 = 100% disease control, 0 = no control) [5]: 9% | Test C disease control rating (100 = 100% disease control, 0 = no control) [6]: 74% | Test D disease control rating (100 = 100% disease control, 0 = no control) [7]: 16% | Test E disease control rating (100 = 100% disease control, 0 = no control) [1, 8]: 0% | Test G disease control rating (100 = 100% disease control, 0 = no control) [3, 9]: 0%

O=C(NCc1ncc(C(F)(F)F)cc1Cl)c1cccnc1O [Compound 8]
Test A disease control rating (100 = 100% disease control, 0 = no control) [4]: 0% | Test B disease control rating (100 = 100% disease control, 0 = no control) [5]: 9% | Test C disease control rating (100 = 100% disease control, 0 = no control) [6]: 0% | Test D disease control rating (100 = 100% disease control, 0 = no control) [7]: 7% | Test E disease control rating (100 = 100% disease control, 0 = no control) [1, 8]: 8% | Test G disease control rating (100 = 100% disease control, 0 = no control) [3, 9]: 8%

COc1ncccc1C(=O)NCc1ncc(C(F)(F)F)cc1Cl [Compound 9]
Test A disease control rating (100 = 100% disease control, 0 = no control) [4]: 0% | Test B disease control rating (100 = 100% disease control, 0 = no control) [5]: 19% | Test C disease control rating (100 = 100% disease control, 0 = no control) [6]: 0% | Test D disease control rating (100 = 100% disease control, 0 = no control) [7]: 7% | Test E disease control rating (100 = 100% disease control, 0 = no control) [1, 8]: 24% | Test G disease control rating (100 = 100% disease control, 0 = no control) [3, 9]: 24%

CCOc1ncccc1C(=O)NCc1ncc(C(F)(F)F)cc1Cl [Compound 10]
Test A disease control rating (100 = 100% disease control, 0 = no control) [4]: 0% | Test B disease control rating (100 = 100% disease control, 0 = no control) [5]: 9% | Test C disease control rating (100 = 100% disease control, 0 = no control) [6]: 0% | Test D disease control rating (100 = 100% disease control, 0 = no control) [7]: 3% | Test E disease control rating (100 = 100% disease control, 0 = no control) [1, 8]: 23% | Test G disease control rating (100 = 100% disease control, 0 = no control) [3, 9]: 23%

Cc1ccc(C(=O)NCc2ncc(C(F)(F)F)cc2Cl)c(Cl)n1 [Compound 11]
Test A disease control rating (100 = 100% disease control, 0 = no control) [4]: 0% | Test B disease control rating (100 = 100% disease control, 0 = no control) [5]: 19% | Test C disease control rating (100 = 100% disease control, 0 = no control) [6]: 90% | Test D disease control rating (100 = 100% disease control, 0 = no control) [7]: 100% | Test E disease control rating (100 = 100% disease control, 0 = no control) [1, 8]: 98% | Test F disease control rating (100 = 100% disease control, 0 = no control) ([2]; seedlings inoculated, sprayed next day (curative), concentration not given): 0% | Test G disease control rating (100 = 100% disease control, 0 = no control) [3, 9]: 99%

O=C(NCc1ncc(C(F)(F)F)cc1Cl)c1ccc(C(F)(F)F)nc1Br [Compound 12]
Test A disease control rating (100 = 100% disease control, 0 = no control) [4]: 0% | Test B disease control rating (100 = 100% disease control, 0 = no control) [5]: 9% | Test C disease control rating (100 = 100% disease control, 0 = no control) [6]: 80% | Test D disease control rating (100 = 100% disease control, 0 = no control) [7]: 32% | Test E disease control rating (100 = 100% disease control, 0 = no control) [1, 8]: 0% | Test G disease control rating (100 = 100% disease control, 0 = no control) [3, 9]: 0%

Cc1ccc(C(=O)NCc2ncc(C(F)(F)F)cc2Cl)c(O)n1 [Compound 13]
Test A disease control rating (100 = 100% disease control, 0 = no control) [4]: 0% | Test B disease control rating (100 = 100% disease control, 0 = no control) [5]: 9% | Test C disease control rating (100 = 100% disease control, 0 = no control) [6]: 0% | Test D disease control rating (100 = 100% disease control, 0 = no control) [7]: 7% | Test E disease control rating (100 = 100% disease control, 0 = no control) [1, 8]: 8% | Test G disease control rating (100 = 100% disease control, 0 = no control) [3, 9]: 8%

Cc1nc(C(F)(F)F)ccc1C(=O)NCc1ncc(C(F)(F)F)cc1Cl [Compound 14]
Test A disease control rating (100 = 100% disease control, 0 = no control) [4]: 0% | Test B disease control rating (100 = 100% disease control, 0 = no control) [5]: 28% | Test C disease control rating (100 = 100% disease control, 0 = no control) [6]: 87% | Test D disease control rating (100 = 100% disease control, 0 = no control) [7]: 25% | Test E disease control rating (100 = 100% disease control, 0 = no control) [1, 8]: 8% | Test G disease control rating (100 = 100% disease control, 0 = no control) [3, 9]: 8%

Cc1nc(C(F)(F)C(F)(F)F)ccc1C(=O)NCc1ncc(C(F)(F)F)cc1Cl [Compound 15]
Test A disease control rating (100 = 100% disease control, 0 = no control) [4]: 69% | Test B disease control rating (100 = 100% disease control, 0 = no control) [5]: 68% | Test C disease control rating (100 = 100% disease control, 0 = no control) [6]: 88% | Test D disease control rating (100 = 100% disease control, 0 = no control) [7]: 16% | Test E disease control rating (100 = 100% disease control, 0 = no control) [1, 8]: 8% | Test G disease control rating (100 = 100% disease control, 0 = no control) [3, 9]: 8%

COc1nc(C(F)(F)F)ccc1C(=O)NCc1ncc(C(F)(F)F)cc1Cl [Compound 16]
Test A disease control rating (100 = 100% disease control, 0 = no control) [4]: 0% | Test B disease control rating (100 = 100% disease control, 0 = no control) [5]: 0% | Test C disease control rating (100 = 100% disease control, 0 = no control) [6]: 0% | Test D disease control rating (100 = 100% disease control, 0 = no control) [7]: 7% | Test E disease control rating (100 = 100% disease control, 0 = no control) [1, 8]: 0% | Test G disease control rating (100 = 100% disease control, 0 = no control) [3, 9]: 0%

Cc1nc(Cl)ccc1C(=O)NCc1ncc(C(F)(F)F)cc1Cl [Compound 17]
Test A disease control rating (100 = 100% disease control, 0 = no control) [4]: 0% | Test B disease control rating (100 = 100% disease control, 0 = no control) [5]: 9% | Test C disease control rating (100 = 100% disease control, 0 = no control) [6]: 13% | Test D disease control rating (100 = 100% disease control, 0 = no control) [7]: 79% | Test E disease control rating (100 = 100% disease control, 0 = no control) [1, 8]: 16% | Test G disease control rating (100 = 100% disease control, 0 = no control) [3, 9]: 16%

O=C(NCc1ncc(C(F)(F)F)cc1Cl)c1ccc(C(F)(F)F)nc1 [Compound 18]
Test A disease control rating (100 = 100% disease control, 0 = no control) [4]: 0% | Test B disease control rating (100 = 100% disease control, 0 = no control) [5]: 32% | Test C disease control rating (100 = 100% disease control, 0 = no control) [6]: 0% | Test D disease control rating (100 = 100% disease control, 0 = no control) [7]: 25% | Test E disease control rating (100 = 100% disease control, 0 = no control) [1, 8]: 0% | Test G disease control rating (100 = 100% disease control, 0 = no control) [3, 9]: 0%
